# In patent US20260138959A1, “QUINAZOLINE DERIVATIVE COMPOUND AND USE THEREOF” (VORONOI INC., priority 2021, published 2026):
# Assays:
# c-KIT V560G/D816V = assay: Proliferation inhibitory activity on Ba/F3 cell (CellTiter-Glo, 72 hours), c-KIT V560G/D816V; type: cell-based; details: Mus musculus, BaF3, c-KIT V560G/D816V cells, read-out: Cell (nM) c-KIT V560G/D816V (GI50 class)
# Method in brief: (§1)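 Viability was read by CellTiter-Glo after 72 h compound exposure at 37 °C, and GI50 values (nM) were derived from percent of vehicle-treated growth. Ba/F3 cells transformed with TEL-PDGFRα/β or mutant c-KIT were plated at 3×10^3 per well. Final compound range was 0.00005-10 μM in 12 threefold steps.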
# Ba/F3-c-KIT(D816V) = assay: Proliferation inhibitory activity on Ba/F3 cell (CellTiter-Glo, 72 hours), c-KIT(D816V); type: cell-based; details: Mus musculus, BaF3, read-out: Ba/F3 (nM) c-KIT (D816V) (GI50 class)
# Method in brief: as §1
# human PDGFR-β(wt) = molecular target: T1, human PDGFR-β(wt) (Homo sapiens, UniProt P09619); assay: Enzyme inhibitory activity, ADP-Glo kinase assay, PDGFR-β(wt); type: biochemical; details: read-out: PDGFR-β (IC50 class)
# T1 construct: purchased Signalchem P13-11G
# Experimental: In order to evaluate the inhibitory activity of the compounds synthesized according to the above examples on PDGFR-α(wt), PDGFR-β(wt), c-KIT(wt), and c-KIT(D816V) kinases, the following method was performed. The compounds of examples were reacted with purified human PDGFR-α(wt) (Signalchem #P12-18G) enzyme, human PDGFR-β(wt) (Signalchem #P13-11G) enzyme, human c-KIT(wt) (Signalchem #K06-11BG) enzyme, human c-KIT(D816V) (Signalchem #C06-12LG) enzyme, and the enzyme inhibitory abilities were evaluated by the following method.
# The reaction buffer was used as a composition of 40 mM Tris-HCl pH7.4, 20 mM MgCl2, 0.5 mg/ml BSA, 50 μM DTT, and the reactions of all the tests were carried out on the reaction buffer. The compound was diluted in 12 steps using a serial dilution method from a 10 mM DMSO stock, and the enzyme activity was measured at a final compound concentration of 10˜0.00005645 μM. During the test, the enzyme activity was confirmed using in vitro ADP-Glo™ kinase assay (Promega) after reacting with the proper concentration of human PDGFR-α(wt) enzyme, human PDGFR-β(wt), human c-KIT(wt) enzyme, and human c-KIT(D816V) enzyme with purified ATP and enzyme substrate at 25° C. for 1˜2 hours. At a ratio of 2:2:1, an enzyme-active reaction solution, an ADP-Glo reaction solution, and an enzyme-active detection solution were reacted to measure the inhibition of the enzyme's activity with luminoscence. Based on the […] of the enzyme activity of the solvent control that was not treated with the compound, the degree of enzyme activity inhibition was calculated according to the treatment concentration of each compound, and the concentration of each compound that inhibits 50% of enzyme activity was determined as IC50 (nM) value and the value was obtained by using GraphPad Prism 8.3.0 (GraphPad software Inc., San Diego) software. (A: IC50≤50 nM; B: 50 nM<IC50≤100 nM; C: 100 nM<IC50≤500 nM; D: IC50>500 nM).
# T1 sequence (P09619 33-1106): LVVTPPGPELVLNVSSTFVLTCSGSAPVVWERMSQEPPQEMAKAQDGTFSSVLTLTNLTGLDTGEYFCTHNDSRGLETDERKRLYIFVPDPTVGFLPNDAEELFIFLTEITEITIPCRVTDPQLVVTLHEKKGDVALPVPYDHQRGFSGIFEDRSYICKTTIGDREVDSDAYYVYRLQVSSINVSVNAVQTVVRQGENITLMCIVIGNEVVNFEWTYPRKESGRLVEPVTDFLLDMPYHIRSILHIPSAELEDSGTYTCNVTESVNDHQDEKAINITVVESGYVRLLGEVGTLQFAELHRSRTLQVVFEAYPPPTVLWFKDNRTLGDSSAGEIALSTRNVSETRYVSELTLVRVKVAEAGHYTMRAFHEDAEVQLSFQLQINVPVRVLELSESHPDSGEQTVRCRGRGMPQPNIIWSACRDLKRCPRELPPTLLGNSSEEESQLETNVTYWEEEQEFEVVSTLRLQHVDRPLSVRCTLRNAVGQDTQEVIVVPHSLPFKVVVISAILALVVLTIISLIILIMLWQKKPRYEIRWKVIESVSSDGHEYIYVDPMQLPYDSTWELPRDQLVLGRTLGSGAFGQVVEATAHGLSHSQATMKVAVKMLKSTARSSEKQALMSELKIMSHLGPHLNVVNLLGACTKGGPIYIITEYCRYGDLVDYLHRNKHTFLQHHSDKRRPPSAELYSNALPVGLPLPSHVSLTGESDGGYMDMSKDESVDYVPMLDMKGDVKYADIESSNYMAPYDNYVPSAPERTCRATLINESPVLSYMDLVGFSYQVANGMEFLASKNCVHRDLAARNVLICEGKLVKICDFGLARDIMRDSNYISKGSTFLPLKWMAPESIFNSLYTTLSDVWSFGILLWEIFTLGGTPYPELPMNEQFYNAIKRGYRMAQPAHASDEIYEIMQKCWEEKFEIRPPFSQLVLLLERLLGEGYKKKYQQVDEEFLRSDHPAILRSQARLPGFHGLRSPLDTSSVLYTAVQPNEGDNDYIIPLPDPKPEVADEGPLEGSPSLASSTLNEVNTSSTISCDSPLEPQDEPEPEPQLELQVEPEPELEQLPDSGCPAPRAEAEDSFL
Structure (SMILES),GI50 (c-KIT V560G/D816V) [nM],GI50 (Ba/F3-c-KIT(D816V)) [nM],IC50 (human PDGFR-β(wt)) [nM]
"CCN1CCC(COc2cc3ncnc(-c4ccc(NC(=O)Cc5ccc(C(F)(F)F)nc5)cc4)c3cc2OC)CC1 [Example 63, N-(4-(7-((1-ethylpiperidin-4-yl)methoxy)-6-methoxyquinazolin-4-yl)phenyl)-2-(6-(trifluoromethyl)pyridin-3-yl)acetamide]",≤ 200,≤ 200,≤ 50
"COc1cc2c(-c3ccc(NC(=O)Cc4ccc(Cl)nc4)cc3)ncnc2cc1OCC1CCNCC1 [Example 69, 2-(6-chloropyridin-3-yl)-N-(4-(6-methoxy-7-(piperidin-4-ylmethoxy)quinazolin-4-yl)phenyl)acetamide]",,≤ 200,≤ 50
"CCN1CCC(COc2cc3ncnc(-c4ccc(NC(=O)Cc5ccc(Cl)nc5)cc4)c3cc2OC)CC1 [Example 70, 2-(6-chloropyridin-3-yl)-N-(4-(7-((1-ethylpiperidin-4-yl)methoxy)-6-methoxyquinazolin-4-yl)phenyl)acetamide]",≤ 200,≤ 200,≤ 50
"COc1ccc(CC(=O)Nc2ccc(-c3ncnc4cc(OCCCN5CCN(C)CC5)c(OC)cc34)cc2)cn1 [Example 81, N-(4-(6-methoxy-7-(3-(4-methylpiperazin-1-yl)propoxy)quinazolin-4-yl)phenyl)-2-(6-methoxypyridin-3-yl)acetamide]",≤ 200,≤ 200,≤ 50
"COc1cc2c(-c3ccc(NC(=O)Cc4ccc(Cl)c(C(F)(F)F)c4)cc3)ncnc2cc1OCCCN1CCN(C)CC1 [Example 82, 2-(4-chloro-3-(trifluoromethyl)phenyl)-N-(4-(6-methoxy-7-(3-(4-methylpiperazin-1-yl)propoxy)quinazolin-4-yl)phenyl)acetamide]",≤ 200,≤ 200,≤ 50
"COCCN1CCC(COc2cc3ncnc(-c4ccc(NC(=O)Cc5ccc(C(F)(F)F)nc5)cc4)c3cc2OC)CC1 [Example 96, N-(4-(6-methoxy-7-((1-(2-methoxyethyl)piperidin-4-yl)methoxy)quinazolin-4-yl)phenyl)-2-(6-(trifluoromethyl)pyridin-3-yl)acetamide]",≤ 200,,≤ 50
"COc1cc2c(-c3ccc(NC(=O)Cc4ccc(C(F)(F)F)nc4)cc3)ncnc2cc1OCC1CCN(C)CC1 [Example 101, N-(4-(6-methoxy-7-((1-methylpiperidin-4-yl)methoxy)quinazolin-4-yl)phenyl)-2-(6-(trifluoromethyl)pyridin-3-yl)acetamide]",≤ 200,,≤ 50
"COc1cc2ncnc(-c3ccc(NC(=O)Cc4ccc(C(F)(F)F)cc4)cc3)c2cc1OC1CCN(C(=O)OC(C)(C)C)CC1 [Example 137, tert-butyl 4-((7-methoxy-4-(4-(2-(4-(trifluoromethyl)phenyl)acetamido)phenyl)quinazolin-6-yl)oxy)piperidin-1-carboxylate]",,200 to 500,≤ 50
COc1cc2ncnc(-c3ccc(NC(=O)Cc4ccc(C(F)(F)F)cc4)cc3)c2cc1OCCCN1CC(CO)(CO)C1 [Example 150],,> 500,≤ 50
"COc1cc2c(-c3ccc(NC(=O)Nc4ccc(Cl)c(C(F)(F)F)c4)cc3)ncnc2cc1OCCCN1CCN(C)CC1 [Example 168, 1-(4-chloro-3-(trifluoromethyl)phenyl)-3-(4-(6-methoxy-7-(3-(4-methylpiperazin-1-yl)propoxy)quinazolin-4-yl)phenyl)urea]",,,50 to 100

# The remaining lines, values ahead:
GI50 (c-KIT V560G/D816V) [nM],GI50 (Ba/F3-c-KIT(D816V)) [nM],IC50 (human PDGFR-β(wt)) [nM],Structure (SMILES)
≤ 200,≤ 200,≤ 50,"COc1cc2c(-c3ccc(NC(=O)Cc4ccc(C(F)(F)F)cc4)cc3)ncnc2cc1OCCCN1C[C@@H]2C[C@H]1CN2C [Example 32, N-(4-(6-methoxy-7-(3-((1S,4S)-5-methyl-2,5-diazabicyclo[2.2.1]heptane-2-yl)propoxy)quinazolin-4-yl)phenyl)-2-(4-(trifluoromethyl)phenyl)acetamide]"
≤ 200,≤ 200,≤ 50,"COc1cc2c(-c3ccc(NC(=O)Cc4ccc(C(F)(F)F)cc4)cc3)ncnc2cc1OCCCN1C2CC1CN(C)C2 [Example 37, N-(4-(6-methoxy-7-(3-(3-methyl-3,6-diazabicyclo[3.1.1]heptane-6-yl)propoxy)quinazolin-4-yl)phenyl)-2-(4-(trifluoromethyl)phenyl)acetamide]"
≤ 200,,≤ 50,"COc1cc2c(-c3ccc(NC(=O)Cc4ccc(C(F)(F)F)cc4)cc3)ncnc2cc1OCC1CCN(C)CC1 [Example 56, N-(4-(6-methoxy-7-((1-methylpiperidin-4-yl)methoxy)quinazolin-4-yl)phenyl)-2-(4-(trifluoromethyl)phenyl)acetamide]"
,200 to 500,≤ 50,"COc1cc2c(-c3ccc(NC(=O)Cc4ccc(C(F)(F)F)nc4)cc3)ncnc2cc1OCC1CCNCC1 [Example 59, N-(4-(6-methoxy-7-(piperidin-4-ylmethoxy)quinazolin-4-yl)phenyl)-2-(6-(trifluoromethyl)pyridin-3-yl)acetamide]"
≤ 200,≤ 200,≤ 50,"CCN1CCC(COc2cc3ncnc(-c4ccc(NC(=O)Cc5cccc(C(F)(F)F)c5)cc4)c3cc2OC)CC1 [Example 64, N-(4-(7-((1-ethylpiperidin-4-yl)methoxy)-6-methoxyquinazolin-4-yl)phenyl)-2-(3-(trifluoromethyl)phenyl)acetamide]"
≤ 200,≤ 200,≤ 50,"CCN1CCC[C@@H](COc2cc3ncnc(-c4ccc(NC(=O)Cc5ccc(C(F)(F)F)cc5)cc4)c3cc2OC)C1 [Example 74, (R)-N-(4-(7-((1-ethylpiperidin-3-yl)methoxy)-6-methoxyquinazolin-4-yl)phenyl)-2-(4-(trifluoromethyl)phenyl)acetamide]"
≤ 200,≤ 200,≤ 50,"COc1cc2c(-c3ccc(NC(=O)Cc4ccc(C(F)(F)F)cc4)cc3)ncnc2cc1OC[C@H]1CCCNC1 [Example 75, (S)-N-(4-(6-methoxy-7-(piperidin-3-ylmethoxy)quinazolin-4-yl)phenyl)-2-(4-(trifluoromethyl)phenyl)acetamide]"
≤ 200,≤ 200,≤ 50,"CCN1CCC[C@H](COc2cc3ncnc(-c4ccc(NC(=O)Cc5ccc(C(F)(F)F)cc5)cc4)c3cc2OC)C1 [Example 76, (S)-N-(4-(7-((1-ethylpiperidin-3-yl)methoxy)-6-methoxyquinazolin-4-yl)phenyl)-2-(4-(trifluoromethyl)phenyl)acetamide]"
200 to 500,≤ 200,≤ 50,"COc1cc2ncnc(-c3ccc(NC(=O)Cc4ccc(C(F)(F)F)cc4)cc3)c2cc1OCCCN1CCOCC1 [Example 129, N-(4-(7-methoxy-6-(3-morpholinopropoxy)quinazolin-4-yl)phenyl)-2-(4-(trifluoromethyl)phenyl)acetamide]"
,200 to 500,≤ 50,"COc1cc2ncnc(-c3ccc(NC(=O)Cc4ccc(C(F)(F)F)cc4)cc3)c2cc1OCC1CCCN(C(=O)OC(C)(C)C)C1 (centres unmarked) [Example 130, tert-butyl 3-(((7-methoxy-4-(4-(2-(4-(trifluoromethyl)phenyl)acetamido)phenyl)quinazolin-6-yl)oxy)methyl)piperidin-1-carboxylate]"
